Experimental data published in patent publication US10669284B2, “Fused thiazolopyrimidine derivatives as MNKS inhibitors” (LIFEARC, priority 2015, dated 2020).

Assays:
MKNK2 = MKNK2 (Homo sapiens, UniProt Q9HBH9); test: Kinase selectivity screen MKNK2; format: biochemical; conditions: 1 μM compound
BTK = BTK (Homo sapiens, UniProt Q06187); test: Kinase selectivity screen BTK; conditions: read-out: % inhibition of BTK
PAK7 = PAK7 (Homo sapiens, UniProt Q9P286); test: Kinase selectivity screen PAK7; conditions: read-out: % inhibition of PAK7
PAK7, sequence (Q9P286 whole entry, species assumed): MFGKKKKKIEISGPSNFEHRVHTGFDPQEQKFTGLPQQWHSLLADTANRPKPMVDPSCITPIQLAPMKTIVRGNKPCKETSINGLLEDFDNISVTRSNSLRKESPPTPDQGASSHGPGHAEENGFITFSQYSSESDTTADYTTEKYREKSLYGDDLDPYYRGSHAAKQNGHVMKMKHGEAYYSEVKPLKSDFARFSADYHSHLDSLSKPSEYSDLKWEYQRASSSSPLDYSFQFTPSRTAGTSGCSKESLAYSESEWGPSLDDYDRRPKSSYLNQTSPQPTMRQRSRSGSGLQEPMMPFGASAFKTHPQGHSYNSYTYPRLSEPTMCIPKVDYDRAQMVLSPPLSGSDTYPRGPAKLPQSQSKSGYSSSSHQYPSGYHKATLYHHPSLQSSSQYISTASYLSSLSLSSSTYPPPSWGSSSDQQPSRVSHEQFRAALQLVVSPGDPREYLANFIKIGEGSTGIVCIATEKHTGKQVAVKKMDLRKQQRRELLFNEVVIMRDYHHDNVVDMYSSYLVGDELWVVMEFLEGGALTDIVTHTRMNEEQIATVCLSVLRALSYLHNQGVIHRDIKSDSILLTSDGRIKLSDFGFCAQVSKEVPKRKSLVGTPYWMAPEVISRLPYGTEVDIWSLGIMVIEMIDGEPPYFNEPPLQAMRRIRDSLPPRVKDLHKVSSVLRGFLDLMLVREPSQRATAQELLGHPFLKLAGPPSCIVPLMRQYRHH

ABL2 = ABL2 (Homo sapiens, UniProt P42684); test: Kinase selectivity screen ABL2; conditions: read-out: % inhibition of ABL2
ABL2, sequence (P42684 whole entry, species assumed): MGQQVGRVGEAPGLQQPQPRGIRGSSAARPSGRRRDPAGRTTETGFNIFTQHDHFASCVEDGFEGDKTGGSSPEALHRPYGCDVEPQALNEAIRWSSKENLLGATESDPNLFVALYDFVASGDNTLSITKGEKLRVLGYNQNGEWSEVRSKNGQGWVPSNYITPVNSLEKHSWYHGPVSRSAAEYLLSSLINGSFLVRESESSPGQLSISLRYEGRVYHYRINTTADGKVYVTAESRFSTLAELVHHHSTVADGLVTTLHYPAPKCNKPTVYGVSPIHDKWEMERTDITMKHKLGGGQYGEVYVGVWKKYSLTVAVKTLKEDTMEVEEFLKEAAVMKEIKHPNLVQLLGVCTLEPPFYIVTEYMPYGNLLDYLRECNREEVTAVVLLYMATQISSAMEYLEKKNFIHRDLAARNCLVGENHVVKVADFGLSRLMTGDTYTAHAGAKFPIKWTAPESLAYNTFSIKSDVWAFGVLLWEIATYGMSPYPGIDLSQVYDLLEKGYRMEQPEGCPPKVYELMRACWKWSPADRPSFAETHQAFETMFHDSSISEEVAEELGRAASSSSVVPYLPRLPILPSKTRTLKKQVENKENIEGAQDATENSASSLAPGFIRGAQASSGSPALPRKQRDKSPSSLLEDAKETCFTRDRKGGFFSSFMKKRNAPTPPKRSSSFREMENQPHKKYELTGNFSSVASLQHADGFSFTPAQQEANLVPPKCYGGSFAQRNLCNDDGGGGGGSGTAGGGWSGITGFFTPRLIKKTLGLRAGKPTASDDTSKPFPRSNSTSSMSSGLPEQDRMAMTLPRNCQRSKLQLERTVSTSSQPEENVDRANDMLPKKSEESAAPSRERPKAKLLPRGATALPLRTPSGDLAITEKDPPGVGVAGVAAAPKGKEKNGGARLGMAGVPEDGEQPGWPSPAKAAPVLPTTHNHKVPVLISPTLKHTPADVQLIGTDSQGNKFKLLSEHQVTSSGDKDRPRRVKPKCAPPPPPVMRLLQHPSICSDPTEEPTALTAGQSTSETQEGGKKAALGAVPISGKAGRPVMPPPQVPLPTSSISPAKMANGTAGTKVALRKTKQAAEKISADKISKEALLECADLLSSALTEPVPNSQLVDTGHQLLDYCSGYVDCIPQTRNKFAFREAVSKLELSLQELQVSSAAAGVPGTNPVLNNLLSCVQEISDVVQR

DMPK = target: T1, DMPK (Homo sapiens, UniProt Q09013); test: Kinase selectivity screen DMPK; conditions: read-out: % inhibition of DMPK
T1 sequence (Q09013 1-629): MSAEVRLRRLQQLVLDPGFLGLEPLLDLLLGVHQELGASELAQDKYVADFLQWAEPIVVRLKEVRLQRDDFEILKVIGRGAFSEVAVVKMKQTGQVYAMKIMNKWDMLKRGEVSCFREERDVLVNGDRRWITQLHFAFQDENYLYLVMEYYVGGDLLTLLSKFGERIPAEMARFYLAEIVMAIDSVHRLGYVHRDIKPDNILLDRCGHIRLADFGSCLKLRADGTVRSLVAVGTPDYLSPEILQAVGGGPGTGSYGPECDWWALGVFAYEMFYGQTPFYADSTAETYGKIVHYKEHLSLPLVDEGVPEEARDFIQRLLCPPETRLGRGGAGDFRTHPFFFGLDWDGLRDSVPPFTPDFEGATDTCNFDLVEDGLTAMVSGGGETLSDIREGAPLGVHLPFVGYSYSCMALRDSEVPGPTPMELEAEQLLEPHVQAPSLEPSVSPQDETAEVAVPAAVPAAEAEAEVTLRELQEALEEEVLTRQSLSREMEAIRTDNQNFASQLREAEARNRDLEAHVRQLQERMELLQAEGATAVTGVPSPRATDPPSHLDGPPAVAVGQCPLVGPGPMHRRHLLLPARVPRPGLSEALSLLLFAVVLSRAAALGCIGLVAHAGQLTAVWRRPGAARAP

ROCK2 = ROCK2 (Homo sapiens, UniProt O75116); test: Kinase selectivity screen ROCK2; conditions: read-out: % inhibition of ROCK2
ROCK2, sequence (O75116 whole entry, species assumed): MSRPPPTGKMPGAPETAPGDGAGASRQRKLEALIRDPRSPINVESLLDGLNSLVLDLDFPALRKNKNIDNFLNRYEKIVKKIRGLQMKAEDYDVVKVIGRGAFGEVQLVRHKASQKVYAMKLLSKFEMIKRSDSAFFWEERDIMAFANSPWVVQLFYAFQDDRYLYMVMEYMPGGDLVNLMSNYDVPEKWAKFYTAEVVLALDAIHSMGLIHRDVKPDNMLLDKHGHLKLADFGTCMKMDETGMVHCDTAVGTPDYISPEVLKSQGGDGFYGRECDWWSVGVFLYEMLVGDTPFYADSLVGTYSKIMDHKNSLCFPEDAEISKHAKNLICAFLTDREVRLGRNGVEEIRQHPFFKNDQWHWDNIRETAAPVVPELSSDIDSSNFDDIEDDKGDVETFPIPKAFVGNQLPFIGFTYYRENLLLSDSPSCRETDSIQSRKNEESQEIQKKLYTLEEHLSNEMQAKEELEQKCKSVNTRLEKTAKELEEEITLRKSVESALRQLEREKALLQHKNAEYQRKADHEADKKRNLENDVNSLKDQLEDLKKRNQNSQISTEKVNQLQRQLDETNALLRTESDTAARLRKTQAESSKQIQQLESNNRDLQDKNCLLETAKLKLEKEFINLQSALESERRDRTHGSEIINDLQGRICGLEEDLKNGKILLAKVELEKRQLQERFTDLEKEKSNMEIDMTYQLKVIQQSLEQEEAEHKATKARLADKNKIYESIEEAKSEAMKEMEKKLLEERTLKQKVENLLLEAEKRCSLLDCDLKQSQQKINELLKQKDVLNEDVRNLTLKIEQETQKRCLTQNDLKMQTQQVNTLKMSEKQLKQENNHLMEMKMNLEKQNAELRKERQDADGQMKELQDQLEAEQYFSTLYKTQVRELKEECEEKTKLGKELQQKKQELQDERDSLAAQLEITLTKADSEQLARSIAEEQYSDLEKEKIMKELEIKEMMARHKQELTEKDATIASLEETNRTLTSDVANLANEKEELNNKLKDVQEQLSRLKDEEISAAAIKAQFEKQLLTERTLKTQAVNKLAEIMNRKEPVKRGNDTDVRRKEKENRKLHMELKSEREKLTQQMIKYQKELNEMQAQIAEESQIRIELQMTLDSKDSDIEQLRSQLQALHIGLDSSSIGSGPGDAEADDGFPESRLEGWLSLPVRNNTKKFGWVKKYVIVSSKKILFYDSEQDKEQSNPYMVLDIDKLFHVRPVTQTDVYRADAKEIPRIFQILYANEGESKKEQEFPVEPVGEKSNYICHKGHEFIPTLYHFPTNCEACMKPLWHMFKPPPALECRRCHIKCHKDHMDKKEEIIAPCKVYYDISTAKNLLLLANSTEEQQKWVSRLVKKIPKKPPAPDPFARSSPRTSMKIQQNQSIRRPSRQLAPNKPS

EPHB4 = target: T2, EPHB4 (Homo sapiens, UniProt P54760); test: Kinase selectivity screen EPHB4; conditions: read-out: % inhibition of EPHB4
T2 sequence (P54760 16-987): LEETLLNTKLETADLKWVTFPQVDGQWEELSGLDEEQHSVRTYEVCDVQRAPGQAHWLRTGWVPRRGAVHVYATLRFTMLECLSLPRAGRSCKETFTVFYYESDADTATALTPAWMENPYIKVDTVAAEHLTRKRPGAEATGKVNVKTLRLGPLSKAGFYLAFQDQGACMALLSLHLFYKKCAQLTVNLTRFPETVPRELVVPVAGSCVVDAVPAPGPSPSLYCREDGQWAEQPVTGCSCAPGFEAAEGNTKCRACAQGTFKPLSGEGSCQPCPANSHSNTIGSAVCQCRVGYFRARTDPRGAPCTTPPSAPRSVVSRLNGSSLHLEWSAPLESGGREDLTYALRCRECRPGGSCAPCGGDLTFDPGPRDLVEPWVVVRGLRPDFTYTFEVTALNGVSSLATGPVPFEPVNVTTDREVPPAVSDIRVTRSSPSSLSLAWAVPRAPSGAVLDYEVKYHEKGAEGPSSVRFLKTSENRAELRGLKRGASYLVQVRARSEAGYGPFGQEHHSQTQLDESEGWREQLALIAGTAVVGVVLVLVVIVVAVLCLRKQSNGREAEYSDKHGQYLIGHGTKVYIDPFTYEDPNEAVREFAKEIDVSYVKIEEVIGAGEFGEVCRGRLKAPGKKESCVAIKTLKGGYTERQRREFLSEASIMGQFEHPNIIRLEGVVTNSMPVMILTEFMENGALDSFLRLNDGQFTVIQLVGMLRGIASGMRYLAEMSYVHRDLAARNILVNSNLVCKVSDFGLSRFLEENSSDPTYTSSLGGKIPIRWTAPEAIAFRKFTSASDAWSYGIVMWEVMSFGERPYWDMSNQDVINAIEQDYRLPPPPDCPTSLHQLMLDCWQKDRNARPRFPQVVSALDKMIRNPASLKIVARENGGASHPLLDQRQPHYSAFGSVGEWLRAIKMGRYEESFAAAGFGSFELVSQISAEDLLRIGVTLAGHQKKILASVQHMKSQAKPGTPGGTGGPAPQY

CHEK1 = target: T3, CHEK1 (Homo sapiens, UniProt O14757); test: Kinase selectivity screen CHEK1; conditions: read-out: % inhibition of CHEK1
T3 sequence (O14757 1-476): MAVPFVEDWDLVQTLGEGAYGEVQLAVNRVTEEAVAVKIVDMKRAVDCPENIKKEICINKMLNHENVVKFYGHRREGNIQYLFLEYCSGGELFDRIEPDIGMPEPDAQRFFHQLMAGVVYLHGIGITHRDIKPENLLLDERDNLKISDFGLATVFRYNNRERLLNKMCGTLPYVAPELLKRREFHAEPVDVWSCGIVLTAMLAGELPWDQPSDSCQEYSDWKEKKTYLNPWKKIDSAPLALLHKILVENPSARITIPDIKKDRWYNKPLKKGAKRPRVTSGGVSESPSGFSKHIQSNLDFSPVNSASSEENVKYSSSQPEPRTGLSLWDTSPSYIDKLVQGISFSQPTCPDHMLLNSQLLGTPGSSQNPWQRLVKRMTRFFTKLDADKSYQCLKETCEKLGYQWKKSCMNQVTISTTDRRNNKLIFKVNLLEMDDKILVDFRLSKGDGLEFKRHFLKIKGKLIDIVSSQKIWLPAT

MKNK2, sequence (Q9HBH9 whole entry): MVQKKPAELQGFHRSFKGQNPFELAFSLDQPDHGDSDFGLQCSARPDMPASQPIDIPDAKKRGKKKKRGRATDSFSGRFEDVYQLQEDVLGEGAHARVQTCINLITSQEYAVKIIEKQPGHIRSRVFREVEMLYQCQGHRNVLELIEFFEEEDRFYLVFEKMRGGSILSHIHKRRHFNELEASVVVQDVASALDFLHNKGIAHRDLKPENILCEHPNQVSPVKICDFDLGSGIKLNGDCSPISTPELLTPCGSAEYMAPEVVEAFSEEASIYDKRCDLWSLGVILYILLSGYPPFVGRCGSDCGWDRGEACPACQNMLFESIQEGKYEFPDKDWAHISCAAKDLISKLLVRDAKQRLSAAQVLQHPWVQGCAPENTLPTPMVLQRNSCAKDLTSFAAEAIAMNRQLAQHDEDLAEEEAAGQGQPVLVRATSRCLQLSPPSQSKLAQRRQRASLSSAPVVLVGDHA
BTK, sequence (Q06187 whole entry, species assumed): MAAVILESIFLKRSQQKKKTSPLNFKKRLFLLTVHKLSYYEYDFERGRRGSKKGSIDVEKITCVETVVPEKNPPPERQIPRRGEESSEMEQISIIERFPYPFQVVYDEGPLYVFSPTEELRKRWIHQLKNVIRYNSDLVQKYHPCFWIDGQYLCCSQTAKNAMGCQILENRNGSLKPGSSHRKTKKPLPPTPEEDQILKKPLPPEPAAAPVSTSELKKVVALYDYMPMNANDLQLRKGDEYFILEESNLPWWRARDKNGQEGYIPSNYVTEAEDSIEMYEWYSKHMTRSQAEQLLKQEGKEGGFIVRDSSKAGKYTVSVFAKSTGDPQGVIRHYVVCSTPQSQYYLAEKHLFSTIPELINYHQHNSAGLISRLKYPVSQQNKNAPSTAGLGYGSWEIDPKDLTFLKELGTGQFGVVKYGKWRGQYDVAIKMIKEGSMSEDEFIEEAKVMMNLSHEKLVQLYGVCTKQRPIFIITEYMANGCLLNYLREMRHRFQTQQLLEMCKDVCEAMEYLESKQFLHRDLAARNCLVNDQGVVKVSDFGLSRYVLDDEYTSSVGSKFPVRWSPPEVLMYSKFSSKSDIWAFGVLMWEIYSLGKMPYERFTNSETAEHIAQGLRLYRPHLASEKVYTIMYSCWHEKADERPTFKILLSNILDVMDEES

Row | SMILES | inhibition at 1 µM (MKNK2) | inhibition at 1 µM (BTK) | inhibition at 1 µM (PAK7) | inhibition at 1 µM (ABL2) | inhibition at 1 µM (DMPK) | inhibition at 1 µM (ROCK2) | inhibition at 1 µM (EPHB4) | inhibition at 1 µM (CHEK1)
1 | CC(C)Oc1cc(F)ccc1Nc1ncnc2sc(C(=O)NCC3CCNCC3)nc12 [Example 10, 7-(4-fluoro-2-isopropoxy-anilino)-N-(4-piperidylmethyl)thiazolo[5,4-d]pyrimidine-2-carboxamide] | 81% | 6% | 1% | 0% | 0% | 1% | 4% | 0%
2 | CN(C)CCCNC(=O)c1nc2c(N3CCc4cc(F)ccc43)ncnc2s1 [Example 64, N-[3-(dimethylamino)propyl]-7-(5-fluoroindolin-1-yl)thiazolo[5,4-d]pyrimidine-2-carboxamide] | 96% | 0% | 0% | 0% | 0% | 18% | 8% | 35%
3 | O=C(NCC1CCNCC1)c1nc2c(N3CCc4cc(F)ccc43)ncnc2s1 [Example 58, 7-(5-fluoroindolin-1-yl)-N-(4-piperidylmethyl)thiazolo[5,4-d]pyrimidine-2-carboxamide] | 93% | 9% | 0% | 0% | 0% | 8% | 0% | 6%
